Literature values, collected in US20250352504A1, “LEVOCARNITINE AND TRIMETAZIDINE BILAYER TABLET AND PREPARATION METHOD THEREOF” (Changzhou High-tech Industrial Development Zone 3D …, priority 2024, published 2025).
Counter-ions that a name gives are not always drawn. Like-named read-outs stand apart in the source and are kept apart here.

What was measured:
[1] = crystalline powder

| Structure (SMILES) | solubility (acetone) | solubility (ethanol) | solubility (ether) | solubility (formic acid) | solubility (water) | hygroscopicity [1] | solubility (0.1 mol/L hydrochloric acid solution) | solubility (0.1 mol/L sodium hydroxide solution) | solubility (acetic acid) | solubility (methanol) |
| --- | --- | --- | --- | --- | --- | --- | --- | --- | --- | --- |
| C[N+](C)(C)C[C@H](O)CC(=O)[O-] [Levocarnitine, (3R)-3-hydroxy-4-(trimethylammonio) butanoate] | almost insoluble | readily soluble | almost insoluble | easily soluble | readily soluble | strong hygroscopicity | – | – | – | – |
| COc1ccc(CN2CCNCC2)c(OC)c1OC [Trimetazidine dihydrochloride, 1-(2,3,4-Trimethoxybenzyl) piperazine dihydrochloride] | – | slightly soluble | almost insoluble | – | highly soluble | – | highly soluble | highly soluble | easily soluble | soluble |
